In patent US10287301B2 (Achillion Pharmaceuticals, Inc., priority 2015, dated 2019) one finds IC50 data, which are given here for 24 molecules.

The assay deals with Human Factor D (Homo sapiens (Human), UniProt P00746). Kind of assay: Human Factor D Assay. It is filed as biochemical. Summed up:
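Factor D (from human serum) 80 nM final + cpd, 5 min RT, 50 mM Tris/1M NaCl pH 7.5; add Z-L-Lys-SBzl 100 μM and DTNB 100 μM final. IC50 by nonlinear fit of rates vs [cpd].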

Where [1] appears, read: Human Factor D assay of Example 8, Table 2, read-out: IC50.
Setting [2] is: Table 3, Human Factor D 80 nM, substrate Z-L-Lys-SBzl, read-out: IC50 (Stars).
Setting [3] is: Human Factor D, Table 3, read-out: IC50.
Setting [4] is: Human Factor D 80 nM, substrate Z-L-Lys-SBzl, read-out: IC50.

Where two headings read alike, the source gives them in different places.

Sequence of Human Factor D (P00746 26-253): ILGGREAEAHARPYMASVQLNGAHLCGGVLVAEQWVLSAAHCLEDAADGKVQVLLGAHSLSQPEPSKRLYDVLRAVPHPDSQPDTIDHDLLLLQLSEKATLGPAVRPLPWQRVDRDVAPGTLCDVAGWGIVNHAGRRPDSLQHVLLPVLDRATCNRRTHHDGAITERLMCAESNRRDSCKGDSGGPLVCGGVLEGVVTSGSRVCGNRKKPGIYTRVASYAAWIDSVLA

The term IC50 denotes the concentration that gives 50% inhibition. In the case of `CC(=O)c1cn(CC(=O)N2C[C@H](F)C[C@H]2C(=O)Nc2cccc(-c3ccccc3Cl)c2F)c2ccc(-c3cnc(C(=O)NC4CC4)nc3)cc12` [Compound 211, 5-(3-acetyl-1-(2-((2S,4R)-2-(2′-chloro-2-fluorobiphenyl-3-ylcarbamoyl)-4-fluoropyrrolidin-1-yl)-2-oxoethyl)-1H-indol-5-yl)-N-cyclopropylpyrimidine-2-carboxamide], the IC50 under setting [1] is less than 1000 nM.

Take `CC(=O)c1nn(CC(=O)N2C[C@H](F)C[C@H]2C(=O)Nc2nc(Br)ccc2C)c2ccc(-c3cnc(N)nc3)cc12` [Compound 435, (2S,4R)-1-(2-(3-Acetyl-5-(2-aminopyrimidin-5-yl)-1H-indazol-1-yl)acetyl)-N-(6-bromo-3-methylpyridin-2-yl)-4-fluoropyrrolidine-2-carboxamide]: the IC50 under setting [2] is less than 1000 nM.

`CC(=O)c1nn(CC(=O)N2C[C@H](F)C[C@H]2C(=O)Nc2cnc(C)c(Br)n2)c2ccc(-c3ccc4nc(C)nn4c3)cc12` [Compound 663, (2S,4R)-1-(2-(3-Acetyl-5-(2-methyl-[1,2,4]triazolo[1,5-a]pyridin-6-yl)-1H-indazol-1-yl)acetyl)-N-(6-bromo-5-methylpyrazin-2-yl)-4-fluoropyrrolidine-2-carboxamide]: under setting [3], the IC50 is less than 1000 nM.

Take `CC(=O)c1nn(CC(=O)N2C[C@H](F)C[C@H]2C(=O)Nc2cccc(OC(F)(F)F)c2F)c2ccc(-c3cnc(C)nc3)cc12` [Compound 220, (2S,4R)-1-(2-(3-acetyl-5-(2-methylpyrimidin-5-yl)-1H-indazol-1-yl)acetyl)-4-fluoro-N-(2-fluoro-3-(trifluoromethoxy)phenyl)pyrrolidine-2-carboxamide]: the IC50 under setting [1] was less than 1000 nM.

Consider `CC(=O)c1nn(CC(=O)N2C[C@H](F)C[C@H]2C(=O)Nc2nc(Br)cs2)c2ccc(-c3cnc(C)nc3)cc12` [Compound 448, (2S,4R)-1-(2-(3-Acetyl-5-(2-methylpyrimidin-5-yl)-1H-indazol-1-yl)acetyl)-N-(4-bromothiazol-2-yl)-4-fluoropyrrolidine-2-carboxamide], for which, under setting [2], the IC50 was less than 1000 nM.

Regarding `CC(=O)c1cn(CC(=O)N2C[C@H](F)C[C@H]2C(=O)Nc2cccc(OC(F)(F)F)c2F)c2ccc(-c3cnc4ccnn4c3)cc12` [Compound 224, (2S,4R)-1-(2-(3-acetyl-5-(pyrazolo[1,5-a]pyrimidin-6-yl)-1H-indol-1-yl)acetyl)-4-fluoro-N-(2-fluoro-3-(trifluoromethoxy)phenyl)pyrrolidine-2-carboxamide], the IC50 under setting [1] was less than 1000 nM.

Consider `COCCN(C)CCN1CC(NC(=O)[C@@H]2C[C@@H](F)CN2C(=O)Cn2nc(C(C)=O)c3cc(-c4cnc(C)nc4)ccc32)CC1=O` (stereo partly drawn) [Compound 254, (2S,4R)-1-(2-(3-acetyl-5-(2-methylpyrimidin-5-yl)-1H-indazol-1-yl)acetyl)-4-fluoro-N-(1-(2-((2-methoxyethyl)(methyl)amino)ethyl)-5-oxopyrrolidin-3-yl)pyrrolidine-2-carboxamide], for which the IC50 under setting [1] is greater than 10000 nM.

In the case of `Cc1cccc(NC(=O)[C@@H]2[C@H]3CC[C@H](C3)N2C(=O)Cn2cc(C(N)=O)c3cc(-c4ccc5ccccc5c4)ccc32)n1` [Compound 489, 1-(2-((1R,3S,4S)-3-((6-Methylpyridin-2-yl)carbamoyl)-2-azabicyclo[2.2.1]heptan-2-yl)-2-oxoethyl)-5-(naphthalen-2-yl)-1H-indole-3-carboxamide], the IC50 under setting [2] is greater than 10000 nM.

Regarding `CC(=O)c1nn(CC(=O)N2C[C@H](F)C[C@H]2C(=O)Nc2cnc(C)c(Br)n2)c2ccc(-c3cnc(C)nc3)cc12` [Compound 349, (2S,4R)-1-(2-(3-Acetyl-5-(2-methylpyrimidin-5-yl)-1H-indazol-1-yl)acetyl)-N-(6-bromo-5-methylpyrazin-2-yl)-4-fluoropyrrolidine-2-carboxamide], under setting [2], the IC50 is less than 1000 nM.

As to `NC(=O)c1nn(CC(=O)N2C[C@H](F)C[C@H]2C(=O)Nc2ncc(I)cn2)c2ccc(-c3ccnnc3)cc12` [Compound 179, 1-(2-((2S,4R)-4-fluoro-2-(5-iodopyrimidin-2-ylcarbamoyl)pyrrolidin-1-yl)-2-oxoethyl)-5-(pyridazin-4-yl)-1H-indazole-3-carboxamide], the IC50 lay in the range of 1000 to 10000 nM.

As to `CC(=O)c1nn(CC(=O)N2C[C@H](F)C[C@H]2C(=O)Nc2cccc(-c3cc(S(=O)(=O)N(C)C)ccc3Cl)c2F)c2ccc(-c3cnc(C)nc3)cc12` [Compound 343, (2S,4R)-1-(2-(3-Acetyl-5-(2-methylpyrimidin-5-yl)-1H-indazol-1-yl)acetyl)-N-(2′-chloro-5′-(N,N-dimethylsulfamoyl)-2-fluoro-[1,1′-biphenyl]-3-yl)-4-fluoropyrrolidine-2-carboxamide], the IC50 under setting [2] was less than 1000 nM.

Turning to `CC(=O)c1nn(CC(=O)N2C[C@H](F)C[C@H]2C(=O)Nc2cccc(F)n2)c2ccc(-c3cnc(C)nc3)cc12` [Compound 247, (2S,4R)-1-(2-(3-acetyl-5-(2-methylpyrimidin-5-yl)-1H-indazol-1-yl)acetyl)-4-fluoro-N-(6-fluoropyridin-2-yl)pyrrolidine-2-carboxamide], the IC50 under setting [1] was less than 1000 nM.

For the molecule `CC(=O)c1nn(CC(=O)N2[C@H](C)CC[C@H]2C(=O)Nc2nc(Br)ccc2C)c2ccc(-c3cnc(C)nc3)cc12` [Compound 731, (2S,5R)-1-(2-(3-Acetyl-5-(2-methylpyrimidin-5-yl)-1H-indazol-1-yl)acetyl)-N-(6-bromo-3-methylpyridin-2-yl)-5-methylpyrrolidine-2-carboxamide], the IC50 under setting [3] was less than 1000 nM.

On to `CC(=O)c1nn(CC(=O)N2C[C@H](F)C[C@H]2C(=O)Nc2cccc(-c3cc(S(=O)(=O)NC4CC4)ccc3Cl)c2F)c2ccc(-c3cnc(C)nc3)cc12` [Compound 745, (2S,4R)-1-(2-(3-Acetyl-5-(2-methylpyrimidin-5-yl)-1H-indazol-1-yl)acetyl)-N-(2′-chloro-5′-(N-cyclopropylsulfamoyl)-2-fluoro-[1,1′-biphenyl]-3-yl)-4-fluoropyrrolidine-2-carboxamide], for which the IC50 under setting [3] is less than 1000 nM.

For the molecule `COC(=O)c1ncc(-c2ccc3c(c2)c(C(C)=O)cn3CC(=O)N2C[C@H](F)C[C@H]2C(=O)Nc2cccc(-c3ccccc3Cl)c2F)cn1` [Compound 204, methyl 5-(3-acetyl-1-(2-((2S,4R)-2-(2′-chloro-2-fluorobiphenyl-3-ylcarbamoyl)-4-fluoropyrrolidin-1-yl)-2-oxoethyl)-1H-indol-5-yl)pyrimidine-2-carboxylate], the IC50 under setting [1] is less than 1000 nM.

`NC(=O)c1nn(CC(=O)N2C[C@H](F)C[C@H]2C(=O)NCc2cccc(Cl)c2)c2ccc(-c3ccnnc3)cc12` [Compound 45, 1-(2-((2S,4R)-2-(3-chlorobenzylcarbamoyl)-4-fluoropyrrolidin-1-yl)-2-oxoethyl)-5-(pyridazin-4-yl)-1H-indazole-3-carboxamide]: under setting [4], the IC50 was less than 1000 nM.

Turning to `CC(=O)c1cn(CC(=O)N2C[C@H](F)C[C@H]2C(=O)Nc2ccccc2-n2nccc2C)c2ccc(-c3ccnnc3)cc12` [Compound 72, (2S,4R)-1-(2-(3-acetyl-5-(pyridazin-4-yl)-1H-indol-1-yl)acetyl)-4-fluoro-N-(2-(5-methyl-1H-pyrazol-1-yl)phenyl) pyrrolidine-2-carboxamide], under setting [4], the half-inhibitory concentration (IC50) was greater than 10000 nM.

Turning to `NC(=O)c1nn(CC(=O)N2C[C@H](F)C[C@H]2C(=O)Nc2noc3cc(C(F)(F)F)ccc23)c2ccc(-c3ccnnc3)cc12` [Compound 112, 1-(2-((2S,4R)-4-fluoro-2-(6-(trifluoromethyl)benzo[d]isoxazol-3-ylcarbamoyl)pyrrolidin-1-yl)-2-oxoethyl)-5-(pyridazin-4-yl)-1H-indazole-3-carboxamide], the IC50 under setting [4] is greater than 10000 nM.

On to `CC(=O)c1cn(CC(=O)N2C[C@H](F)C[C@H]2C(=O)Nc2cccc(Cl)c2-n2cncn2)c2ccc(-c3ccnnc3)cc12` [Compound 95, (2S,4R)-1-(2-(3-acetyl-5-(pyridazin-4-yl)-1H-indol-1-yl)acetyl)-N-(3-chloro-2-(1H-1,2,4-triazol-1-yl)phenyl)-4-fluoropyrrolidine-2-carboxamide], for which, under setting [4], the IC50 was greater than 10000 nM.

Consider `CC(=O)c1nn(CC(=O)N2C[C@H](F)C[C@H]2C(=O)Nc2cccc(Br)n2)c2ccc(-c3cnc(CO)nc3)cc12` [Compound 374, (2S,4R)-1-(2-(3-Acetyl-5-(2-(hydroxymethyl)pyrimidin-5-yl)-1H-indazol-1-yl)acetyl)-N-(6-bromopyridin-2-yl)-4-fluoropyrrolidine-2-carboxamide], for which the concentration for half-maximal inhibition (IC50) under setting [2] is less than 1000 nM.

Regarding `CC(=O)c1cn(CC(=O)N2C[C@H](F)C[C@H]2C(=O)N[C@H]2CCC[C@@H]2OCc2ccccc2)c2ccc(-c3ccnnc3)cc12` [Compound 77, (2S,4R)-1-(2-(3-acetyl-5-(pyridazin-4-yl)-1H-indol-1-yl)acetyl)-N-((1S,2S)-2-(benzyloxy)cyclopentyl)-4-fluoropyrrolidine-2-carboxamide], the IC50 under setting [4] is greater than 10000 nM.

Turning to `C=CCCCCCCCCCNc1ncc(-c2ccc3c(c2)c(C(C)=O)nn3CC(=O)N2C[C@H](F)C[C@H]2C(=O)NCc2cc(C=C)cc(Cl)c2F)cn1` [Compound 279, (2S,4R)-1-(2-(3-acetyl-5-(2-(undec-10-enylamino)pyrimidin-5-yl)-1H-indazol-1-yl)acetyl)-N-(3-chloro-2-fluoro-5-vinylbenzyl)-4-fluoropyrrolidine-2-carboxamide], under setting [1], the IC50 was greater than 10000 nM.

`CC(=O)c1cn(CC(=O)N2C[C@H](F)C[C@H]2C(=O)Nc2cncc(Cl)n2)c2ccc(-c3ccnnc3)cc12` [Compound 88, (2S,4R)-1-(2-(3-acetyl-5-(pyridazin-4-yl)-1H-indol-1-yl)acetyl)-N-(6-chloropyrazin-2-yl)-4-fluoropyrrolidine-2-carboxamide]: the IC50 under setting [4] was less than 1000 nM.

Regarding `CC(=O)c1nn(CC(=O)N2C[C@H](F)C[C@H]2C(=O)Nc2cccc(Br)n2)c2ccc(-c3cnc(CC(N)=O)nc3)cc12` [Compound 532, (2S,4R)-1-(2-(3-Acetyl-5-(2-(2-amino-2-oxoethyl)pyrimidin-5-yl)-1H-indazol-1-yl)acetyl)-N-(6-bromopyridin-2-yl)-4-fluoropyrrolidine-2-carboxamide], the IC50 under setting [2] was less than 1000 nM.
